{
  "source": "patent US20220409692A1",
  "about": "“Systems Chemico-Pharmacology Drugs and Methods of Use” (The Medical College of Wisconsin, priority 2019, published 2022)",
  "key": {"RLMVEC": {"test_system": "RLMVEC", "assay": "KYC thiylation of endothelial cell proteins in RLMVEC cultures", "format": "cell-based, rat", "text": "FIG. 29. Effects of Oxidative Stress on KYC Thiylation of RLMVEC Proteins. (A) Streptavidin affinity blot of KYC thiylated proteins from cell lysates prepared from RLMVEC cultures treated with B-KYC (baseline), B-KYC+MPO+H2O2 (MPO-dependent), and B-KYC+H2O2 (H2O2-dependent). (B) Immunoblot for Nrf2 in RLMVEC cultures treated as described in A. (C) Immunoblot for Keap1 in RLMVEC cultures treated as described in A. (D) Immunoblot for HMGB1 in RLMVEC cultures treated as described in A.(E) Immunoblot for β-Actin in RLMVEC cultures treated as described in A.(F) Bar chart showing relative levels of KYC thiylation, Nrf2, Keap1, and HMGB1 as a function of β-Actin (n=2, *=p<0.05, statistical analysis was preformed by ANOVA with appropriate post hoc tests).\nFIG. 31. MPO Oxidation of KYC Increases KYC Thiylation of Extracellular HMGB1. […] This conclusion is based on the relative levels of KYC thiylated HMGB1 in panel A vs. KYC thiylated HMGB1 as a function of HMGB1 protein in conditioned media vs. RLMVEC cell lysates.\nRat lung microvascular endothelial cells (RLMVEC) from neonatal Sprague-Dawley rats (RN-6011) and rat endothelial growth medium (EGM, M1266SF) were from Cell Biologics (Chicago, Ill.). Amicon®Ultra-4 centrifugal concentrators with 3K cut-off (UFC800324) were from Merck Millipore Ltd (Carrigtwohill, Ireland). PierceTM Streptavidin (#88816), Protein G (#88848), Protein A Magnetic Beads (#88845), PierceTM ECL Western Blotting Substrate (#32106), and SuperSignalTM West Femto Maximum Sensitivity Substrate (#34095) were from Thermo Fisher Scientific (Waltham, MA). Rabbit antibodies for myeloperoxidase heavy chain (MPO, sc-33596) and TLR4 (sc-10741) were from Santa Cruz Biotechnology (Dallas, Texas). Rabbit antibody for Cl-Tyr (HP5002) was from Hycult Biotech (Plymouth Meeting, PA). The chicken antibody for HMGB1 (326052233) was from SHINO-TEST Corporation (Kanagawa, Japan). Rabbit antibody for RAGE (GTX23611) was from GeneTex (Irvine, CA). Mouse antibodies for PECAM-1/CD31 (ab24590), for 8-OH-dG (ab48508), and for rat endothelial cell antigen-1 (RECA-1, ab9774) were from Abcam (Cambridge, MA). Rabbit antibody for Cox1 (sc-7950) and Cox2 (sc-7951) were from Santa Cruz Biotechnology. Mouse (ab190377) and rabbit (ab77302b) antibodies for HMGB1, and streptavidin-HRP (ab7403) were from Abcam (Cambridge, Mass.). Rabbit antibody for acetylated-HMGB1 (OASG03545) was from Aviva System Biology (San Diego, Calif.). Rabbit antibodies for Nrf2 (sc-722) and TLR4 (sc-30002) were from Santa Cruz Biotechnology (Dallas, Tex.). Rabbit antibody against Keap1 (ABS97) and mouse antibody for β-actin (A2228) were from Millipore-Sigma (St. Louis, Mo.). Rabbit antibody for cysteine sulfonyl (ADI-OSA-820) was from Enzo Life Sciences (Farmingdale, N.Y.). Mouse antibody for glutathionylated proteins (D8) and all other chemicals were from Sigma-Aldrich (St. Louis, Mo.). All antibodies were certified either by the manufacturer or were used previously and certified by the authors, as was the case for the anti-HMGB1 antibody.\nEffects of Oxidative Stress on KYC Thiylation on Endothelial Cell Proteins in RLMVEC Cultures: To determine the effects of oxidative stress on KYC thiylation, RLMVEC cultures were treated with B-KYC to follow KYC thiylation with streptavidin-affinity blotting as outlined in Methods. Three different levels of oxidative stress were used to determine the effects of oxidative stress on KYC thiylation of endothelial cell proteins: media alone (baseline); media containing MPO+H2O2 (MPO-dependent); and media containing H2O2 alone (H2O2-dependent) (FIG. 29A). KYC thiylation of RLMVEC proteins at baseline was low (FIG. 29A, first two lanes)."}, "control mice": {"test_system": "control mice", "assay": "Increasing single IP doses of KYC in control mice", "format": "in vivo, mouse", "conditions": "unpublished, personal observations"}, "[1]": {"conditions": "RLMVEC cultures, baseline vs MPO-dependent vs H2O2-dependent"}},
  "note": "Peptide text beside a SMILES is read from it.",
  "data": [
    {"smiles": "CC(=O)N[C@@H](CCCCN)C(=O)N[C@@H](Cc1ccc(O)cc1)C(=O)N[C@@H](CS)C(N)=O", "note": "[KYC, N-acetyl lysyltyrosylcysteine amide] (Ac-Lys-Tyr-Cys-NH2)", "values": [
      {"measurement": "HMGB1 expression relative to β-actin", "setting": "RLMVEC; [1]", "value": "increased in RLMVEC cultures subjected to H2O2-dependent KYC thiylation"},
      {"measurement": "Keap1 expression relative to β-actin", "setting": "RLMVEC; [1]", "value": "followed a pattern similar to Nrf2"},
      {"measurement": "Nrf2 expression relative to β-actin", "setting": "RLMVEC; [1]", "value": "increased in RLMVEC cultures subjected to MPO-dependent KYC thiylation"},
      {"measurement": "KYC thiylation of HMGB1 released from RLMVEC cultures", "setting": "RLMVEC; conditioned media, no KYC vs KYC vs MPO+H2O2+KYC", "value": "greater in RLMVEC cultures incubated with MPO+H2O2+KYC"},
      {"measurement": "single dose at which observable adverse effects were induced", "setting": "control mice", "value": 800, "unit": "mg/kg"}
    ]}
  ]
}
